Laboratory results taken from PMC2874192 (Cancer research, 2010).

Key:
[1] = no reference given; cited from earlier work
[2] = humans, within 24 h, primarily through kidneys; cited from earlier work
CXCR4 receptor = details: Cu-bound vs unbound AMD3100; cited from earlier work
[3] = test system: U87 and U87-stb-CXCR4 glioblastoma xenografts; format: in vivo; details: whole body image at 90 min
[4] = test system: U87 and U87-stb-CXCR4 glioblastoma xenografts; experiment: Ex vivo biodistribution in subcutaneous brain tumor model; set-up: species or system NOD/SCID mice; details: 740 kBq, 90 min after injection

SMILES | plasma protein bound [1] [%] | drug eliminated as parent [2] [%] | increase of affinity to the CXCR4 receptor by Cu bound to the cyclam (CXCR4 receptor) [fold] | distribution of radiotracer (PET) [3] | radioactivity distribution (ex vivo biodistribution) [4]
c1cc(CN2CCCNCCNCCCNCC2)ccc1CN1CCCNCCNCCCNCC1 [AMD3100] | ~58 | ~70 | 6 |  | 
[Cl][64Cu][Cl] [[^64Cu]CuCl2] |  |  |  | uniform distribution | uniform
